# Like-named read-outs stand apart in the source and are kept apart here.
# Legend:
# [1] = Drug levels in blood plasma and homogenized brain tissue by mass spectroscopy; type: in vivo; conditions: iv, mouse; for concentration at 15 min: male, 3 mg/Kg i.v., occupancy study
# Description: Ex Vivo Occupancy Assay. […] 7-9 weeks old male CD-1 mice were dosed intravenously in a vehicle consisting of 10% dimethylacetamide, 40% PEG-400, 30% hydroxypropyl betacyclodextrin, and 30% water with experimental compounds and the forebrains were harvested 15 minutes post-dosing by decapitation. The brain samples were immediately snap-frozen and stored at −80° C. On the following day, the dosed brain samples were thawed on ice for 15-20 minutes followed by homogenization using Polytron for 10 seconds in cold homogenization buffer composed of 50 mM KH2PO4 (pH adjusted to 7.4 with KOH), 1 mM EDTA, 0.005% Triton X 100 and protease inhibitor cocktail (Sigma Aldrich). The crude homogenates were further homogenized using a Dounce homogenizer and the homogenized membrane aliquots from all animals were flash-frozen and stored at −80° C. until further use. The whole homogenization process was performed on ice. For determining occupancy, the membrane homogenates were first thawed on ice and then needle-homogenized using a 25 gauge needle. The homogenized membrane (6.4 mg/ml) was added to a 96-well plate followed by addition of ^3H Ro 25-6981 (6 nM). The reaction mixture was incubated for 5 minutes on a shaker at 4° C. and then harvested onto GF/B filter plates (treated with 0.5% PEI for 1 hr at room temperature). The filter plates were dried at 50° C. for 20 mins, incubated with microscint 20 for 10 minutes and read on TopCount (Perkin Elmer). Each dose or compound group consisted of 4-5 animals. The control group of animals was dosed with vehicle alone. Membrane from each animal was added in triplicates to the assay plate. Non-specific binding was determined using 10 μM Ro 25-6981 added to the wells containing membrane homogenates from vehicle-dosed animals. […]
# Drug levels were determined by mass spectroscopy in the usual manner. […]
# Mouse Forced Swim Test (mFST). […] The duration of immobility was evaluated during the total 6 min of the test and expressed as duration (sec) of immobility. […]
# [2] = test system: mice; experiment: Mouse Forced Swim Test (mFST); type: in vivo; conditions: 1 mg/Kg i.v., 15 min before 6 min swim session
# Description: Mouse Forced Swim Test (mFST). Forced Swim Test (FST) is an animal model used to assess antidepressant compounds in preclinical studies. The FST was performed similar to the method of Porsolt et al. with modifications (Porsolt R D, Bertin A, Jalfre M. Behavioral despair in mice: a primary screening test for antidepressants. Arch Int Pharmacodyn Thér 1977; 229:327-36). In this paradigm, mice are forced to swim in an inescapable cylinder filled with water. Under these conditions, mice will initially try to escape and eventually develop immobility behavior; this behavior is interpreted as a passive stress-coping strategy or depression-like behavior. […] The duration of immobility was evaluated during the total 6 min of the test and expressed as duration (sec) of immobility. […] All testing sessions were recorded with a video camera (Sony Handicam, Model: DCR-HC38E; PAL) and scoring was done using the Forced Swim Scan, Version 2.0 software (Clever Systems Inc., Reston, Va., USA; see Hayashi E, Shimamura M, Kuratani K, Kinoshita M, Hara H. Automated experimental system capturing three behavioral components during murine forced swim test. Life Sci. 2011 Feb. 28; 88(9-10):411-7 and Yuan P, Tragon T, Xia M, Leclair C A, Skoumbourdis A P, Zheng W, Thomas C J, Huang R, Austin C P, Chen G, Guitart X. Phosphodiesterase 4 inhibitors enhance sexual pleasure-seeking activity in rodents. […]
smiles,measurement,setting,value
"Cc1ccc(CN2OCC(N3CCN(c4ccc(O)cn4)CC3)C2=O)cc1 (single isomer, unassigned) [Example 10, P-1, 4-(4-(5-hydroxypyridin-2-yl)piperazin-1-yl)-2-(4-methylbenzyl)isoxazolidin-3-one]",concentration at 15 min,"[1]; CD-1, brain, read-out: drug levels in the homogenized brain tissue",863 nM
same,concentration at 15 min,"[1]; CD-1, plasma, read-out: Drug levels in the blood plasma",572 nM
same,concentration at 21 min,"[1]; plasma, 1 mg/Kg i.v., at end of forced swim test",207 nM
same,immobility time,[2],statistically significant decrease

# Reference: US10501451B2, “Selective NR2B antagonists” (BRISTOL-MYERS SQUIBB COMPANY, priority 2015, dated 2019)
